The source of these data is ChEMBL document CHEMBL1201862, “PubChem BioAssay data set” (2004).

The target of one experiment is Paired box protein Pax-8 (Homo sapiens, UniProt Q06710). The experiment in a line: PAX8 transcriptional activity inhibition in RMG-I – RMG-I cells, luciferase, cherry-pick, dose response (AID 687027).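 Note: luciferase reporter driven by Pax8 target thyroperoxidase promoter measured by SteadyGlo luminescence.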 The class given is functional, cell-based.
Experiment [1] can be described thus: Fluorescence-based cell-based high throughput dose response assay for inhibitors of the interaction of nucleotide-binding oligomerization domain containing 2 (NOD2) and the receptor-interacting serine-threonine kinase 2 (RIPK2). The class given is functional, Homo sapiens. Particulars: Homo sapiens.
The target of a further experiment is Mucolipin-3 (Homo sapiens, UniProt Q8TDD5). The experiment in a line: Dose response cell-based high-throughput screening assay for agonists of the transient receptor potential channel ML3 (TRPML3). [Related pubchem assays: 1526, 1424, 1448 ]. The experiment is classed as functional.
Mucolipin-3, sequence (Q8TDD5 whole entry): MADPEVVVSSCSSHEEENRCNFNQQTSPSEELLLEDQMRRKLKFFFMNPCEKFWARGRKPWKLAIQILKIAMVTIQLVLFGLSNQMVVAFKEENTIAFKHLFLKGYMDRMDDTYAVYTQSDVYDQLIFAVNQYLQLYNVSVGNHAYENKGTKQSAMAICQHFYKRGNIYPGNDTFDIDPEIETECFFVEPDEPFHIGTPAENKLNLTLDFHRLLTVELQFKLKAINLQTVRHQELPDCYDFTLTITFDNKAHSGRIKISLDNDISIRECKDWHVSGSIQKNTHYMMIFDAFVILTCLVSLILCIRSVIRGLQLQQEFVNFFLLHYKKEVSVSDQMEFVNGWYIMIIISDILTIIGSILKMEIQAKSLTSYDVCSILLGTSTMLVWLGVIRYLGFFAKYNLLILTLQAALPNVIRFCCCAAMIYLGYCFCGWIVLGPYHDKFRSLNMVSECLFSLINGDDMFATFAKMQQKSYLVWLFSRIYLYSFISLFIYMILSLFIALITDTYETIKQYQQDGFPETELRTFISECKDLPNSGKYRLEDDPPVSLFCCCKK
Experiment [2] in a line: Trypanosoma cruzi growth suppression in host cells – NIH3T3 host cells, beta-gal luminescence, confirmation (AID 2044).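 Note: intracellular parasites grown in NIH/3T3 mouse fibroblasts as host cells; luminescent beta-galactosidase reporter signal from transgenic T. cruzi replicating inside host cells; inhibitors lower the luminescence signal.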 The class given is functional, cell-based.
For another experiment, the target named is Ion channel NompC (Danio rerio, UniProt Q7T1G6). The experiment in a line: Fluorescence counterscreen assay for TRPML3 agonists: dose response cell-based high-throughput screening assay to identify agonists of the transient receptor potential channel N1 (TRPN1). [Related pubchem assays: 1526, 1424, 1448 ]. The experiment is classed as functional.
Ion channel NompC, sequence (Q7T1G6 whole entry): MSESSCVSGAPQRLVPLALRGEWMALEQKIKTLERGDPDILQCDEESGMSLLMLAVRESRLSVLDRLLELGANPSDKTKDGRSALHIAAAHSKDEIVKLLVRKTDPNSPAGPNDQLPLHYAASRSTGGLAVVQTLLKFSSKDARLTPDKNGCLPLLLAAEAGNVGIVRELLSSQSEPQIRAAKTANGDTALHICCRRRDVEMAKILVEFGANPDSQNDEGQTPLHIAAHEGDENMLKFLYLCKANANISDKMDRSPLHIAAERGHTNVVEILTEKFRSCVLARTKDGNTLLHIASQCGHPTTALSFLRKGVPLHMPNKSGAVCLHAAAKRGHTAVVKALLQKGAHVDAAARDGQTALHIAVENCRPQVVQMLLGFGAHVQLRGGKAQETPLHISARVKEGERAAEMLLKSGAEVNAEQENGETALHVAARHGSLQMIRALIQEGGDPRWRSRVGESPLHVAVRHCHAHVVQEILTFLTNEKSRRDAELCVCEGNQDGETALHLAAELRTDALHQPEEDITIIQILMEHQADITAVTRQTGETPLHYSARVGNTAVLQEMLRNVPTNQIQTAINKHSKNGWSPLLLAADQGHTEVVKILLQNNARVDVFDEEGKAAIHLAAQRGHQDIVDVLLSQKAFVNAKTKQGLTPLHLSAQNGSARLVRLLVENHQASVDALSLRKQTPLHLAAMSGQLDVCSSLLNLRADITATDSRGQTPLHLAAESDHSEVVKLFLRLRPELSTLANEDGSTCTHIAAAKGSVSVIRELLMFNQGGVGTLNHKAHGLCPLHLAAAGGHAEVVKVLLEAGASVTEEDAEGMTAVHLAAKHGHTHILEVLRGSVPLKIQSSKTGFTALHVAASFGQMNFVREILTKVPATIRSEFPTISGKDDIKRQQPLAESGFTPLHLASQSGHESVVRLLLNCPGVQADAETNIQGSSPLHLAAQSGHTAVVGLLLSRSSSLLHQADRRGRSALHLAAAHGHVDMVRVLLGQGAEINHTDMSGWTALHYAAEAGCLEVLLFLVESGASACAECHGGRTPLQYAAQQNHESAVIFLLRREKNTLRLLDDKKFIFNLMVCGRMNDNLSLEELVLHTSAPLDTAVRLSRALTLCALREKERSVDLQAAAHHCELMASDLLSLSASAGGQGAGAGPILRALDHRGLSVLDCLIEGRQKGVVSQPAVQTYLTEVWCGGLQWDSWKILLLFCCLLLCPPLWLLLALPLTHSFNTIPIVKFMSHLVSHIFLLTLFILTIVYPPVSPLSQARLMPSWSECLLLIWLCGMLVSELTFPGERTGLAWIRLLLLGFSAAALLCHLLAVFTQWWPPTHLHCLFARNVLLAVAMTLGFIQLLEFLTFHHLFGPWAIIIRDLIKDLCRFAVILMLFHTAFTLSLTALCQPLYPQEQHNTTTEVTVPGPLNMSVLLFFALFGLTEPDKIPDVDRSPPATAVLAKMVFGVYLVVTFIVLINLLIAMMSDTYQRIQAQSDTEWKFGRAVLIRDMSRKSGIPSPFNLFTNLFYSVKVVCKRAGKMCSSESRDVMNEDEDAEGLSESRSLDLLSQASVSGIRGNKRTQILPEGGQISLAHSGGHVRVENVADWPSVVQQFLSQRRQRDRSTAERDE
Experiment [3] is described as follows: NIH3T3 cell viability loss – ATP luminescence, mouse fibroblasts, counter-screen, dose response (AID 2010).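 Note: cells exposed to compound for about 90 hours before reading.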 The class given is functional, cell-based.
Another experiment relates to CHO. The experiment in a line: CHO cell viability loss, potency – luminescence, cytotoxicity control for TLR9-MyD88 binding inhibitor project, dose response (AID 588339).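 Note: CHO cells stably coexpressing TLR9 and MyD88 fusions from primary screen; compound exposure lasted 48 hours before viability readout.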 Particulars: Cricetulus griseus. The class given is functional, cell-based, hamster.
Experiment [4] has as its target T1, Sentrin-specific protease 6 (Homo sapiens, UniProt Q9GZR1).
T1 sequence (Q9GZR1 whole entry): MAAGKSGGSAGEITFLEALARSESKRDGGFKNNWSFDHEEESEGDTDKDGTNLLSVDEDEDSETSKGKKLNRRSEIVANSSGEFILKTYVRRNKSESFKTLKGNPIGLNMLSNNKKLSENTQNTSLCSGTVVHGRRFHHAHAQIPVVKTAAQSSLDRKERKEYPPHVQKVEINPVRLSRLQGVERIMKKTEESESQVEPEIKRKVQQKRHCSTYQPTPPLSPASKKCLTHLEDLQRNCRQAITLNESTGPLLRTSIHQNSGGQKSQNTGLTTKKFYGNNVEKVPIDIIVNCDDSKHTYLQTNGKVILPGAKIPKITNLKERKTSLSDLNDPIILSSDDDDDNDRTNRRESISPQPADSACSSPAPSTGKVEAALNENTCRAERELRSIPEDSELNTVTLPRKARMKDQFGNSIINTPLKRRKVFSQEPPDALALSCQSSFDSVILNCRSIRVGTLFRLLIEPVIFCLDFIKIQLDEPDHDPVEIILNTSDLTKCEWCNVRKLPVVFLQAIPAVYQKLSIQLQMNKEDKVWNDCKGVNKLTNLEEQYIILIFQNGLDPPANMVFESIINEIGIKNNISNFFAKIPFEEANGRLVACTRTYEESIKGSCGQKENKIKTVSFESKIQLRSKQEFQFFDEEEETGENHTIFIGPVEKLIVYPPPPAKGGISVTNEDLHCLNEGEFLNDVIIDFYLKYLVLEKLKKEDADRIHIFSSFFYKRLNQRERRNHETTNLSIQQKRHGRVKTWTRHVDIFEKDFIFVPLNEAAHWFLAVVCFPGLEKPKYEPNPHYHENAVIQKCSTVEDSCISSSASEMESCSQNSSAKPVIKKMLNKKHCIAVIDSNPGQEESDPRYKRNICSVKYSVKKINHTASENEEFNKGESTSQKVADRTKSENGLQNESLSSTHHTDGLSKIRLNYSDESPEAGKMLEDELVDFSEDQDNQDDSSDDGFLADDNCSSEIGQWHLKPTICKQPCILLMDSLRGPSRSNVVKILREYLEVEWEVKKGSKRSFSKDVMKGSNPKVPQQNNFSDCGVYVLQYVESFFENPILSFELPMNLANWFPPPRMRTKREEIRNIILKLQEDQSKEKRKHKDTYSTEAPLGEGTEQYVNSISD
The experiment in a line: SAR Analysis of small molecule inhibitors of Sentrin-specific protease 6 (SENP6) using a Luminescent assay. [Related pubchem assays (depositor defined):AID2582, AID2599]. The experiment is classed as functional.

In experiment [5] the target is T2, Caspase-3 (Homo sapiens, UniProt P42574).
T2 sequence (P42574 whole entry): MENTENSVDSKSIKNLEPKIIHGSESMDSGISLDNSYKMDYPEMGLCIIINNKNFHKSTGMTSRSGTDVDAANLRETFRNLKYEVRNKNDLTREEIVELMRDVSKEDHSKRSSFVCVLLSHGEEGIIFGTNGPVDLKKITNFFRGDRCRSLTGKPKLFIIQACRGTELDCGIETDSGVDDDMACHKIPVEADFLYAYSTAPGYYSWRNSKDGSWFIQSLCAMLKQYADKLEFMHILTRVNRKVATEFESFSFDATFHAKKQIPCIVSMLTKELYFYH
The experiment in a line: SAR Analysis of small molecule inhibitors of Sentrin-specific proteases (SENPs) using a Caspase-3 Selectivity assay. [Related pubchem assays (depositor defined):AID2540, AID2599, AID434973, AID489001]. The experiment is classed as functional.

Experiment [6] deals with T3, Sentrin-specific protease 7 (Homo sapiens, UniProt Q9BQF6).
T3 sequence (Q9BQF6 whole entry): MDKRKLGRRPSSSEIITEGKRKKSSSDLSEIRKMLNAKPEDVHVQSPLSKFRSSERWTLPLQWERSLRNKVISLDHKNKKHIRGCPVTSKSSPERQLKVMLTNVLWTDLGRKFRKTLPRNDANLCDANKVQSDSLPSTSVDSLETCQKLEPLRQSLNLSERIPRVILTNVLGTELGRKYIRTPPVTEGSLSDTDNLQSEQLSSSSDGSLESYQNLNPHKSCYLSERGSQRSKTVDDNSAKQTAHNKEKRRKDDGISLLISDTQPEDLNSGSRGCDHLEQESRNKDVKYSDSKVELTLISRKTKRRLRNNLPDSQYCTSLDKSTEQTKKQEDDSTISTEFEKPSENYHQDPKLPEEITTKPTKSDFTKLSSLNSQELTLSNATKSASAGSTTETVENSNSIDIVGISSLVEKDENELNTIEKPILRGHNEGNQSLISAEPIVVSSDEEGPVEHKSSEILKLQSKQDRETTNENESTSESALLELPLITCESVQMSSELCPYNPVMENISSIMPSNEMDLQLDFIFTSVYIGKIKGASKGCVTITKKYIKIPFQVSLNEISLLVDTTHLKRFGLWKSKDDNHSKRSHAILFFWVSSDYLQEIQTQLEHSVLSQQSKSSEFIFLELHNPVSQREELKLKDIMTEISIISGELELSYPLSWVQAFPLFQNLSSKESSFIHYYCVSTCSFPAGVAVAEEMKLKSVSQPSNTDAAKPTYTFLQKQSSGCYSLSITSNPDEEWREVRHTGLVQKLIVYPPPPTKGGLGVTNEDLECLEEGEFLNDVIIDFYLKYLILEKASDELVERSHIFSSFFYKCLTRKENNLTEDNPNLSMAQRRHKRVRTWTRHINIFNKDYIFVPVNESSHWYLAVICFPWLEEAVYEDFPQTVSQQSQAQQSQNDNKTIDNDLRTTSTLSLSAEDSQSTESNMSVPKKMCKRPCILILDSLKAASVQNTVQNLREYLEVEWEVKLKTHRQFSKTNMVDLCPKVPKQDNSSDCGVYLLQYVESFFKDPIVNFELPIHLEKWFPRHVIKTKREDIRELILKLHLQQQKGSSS
The experiment in a line: inhibition of human SENP7 cleavage activity – biochemical, luminescence, SAR follow-up (AID 504497). The experiment is classed as functional.

The target of experiment [7] is T4, Sentrin-specific protease 8 (Homo sapiens, UniProt Q96LD8).
T4 sequence (Q96LD8 whole entry): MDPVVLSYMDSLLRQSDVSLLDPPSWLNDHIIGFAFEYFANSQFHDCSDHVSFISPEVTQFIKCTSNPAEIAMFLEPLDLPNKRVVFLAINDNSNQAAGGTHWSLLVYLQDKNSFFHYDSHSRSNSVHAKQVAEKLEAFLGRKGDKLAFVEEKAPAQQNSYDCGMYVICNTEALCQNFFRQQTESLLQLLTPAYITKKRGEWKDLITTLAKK
The experiment in a line: inhibition of human SENP8 cleavage activity – biochemical, luminescence, SAR follow-up (AID 504501). The experiment is classed as functional.

Experiment [8] deals with Latent membrane protein 1 (Human herpesvirus 4 (strain B95-8), UniProt P03230). The experiment in a line: LMP1 TES1 pathway selectivity over dsRED control – imaging, HEK293T, dual-color eGFP/dsRED, cherry-picks, selectivity assay for LMP1 NF-kB inhibitor project, dose response (AID 588398). The experiment is classed as functional, cell-based.
Latent membrane protein 1, sequence (P03230 whole entry): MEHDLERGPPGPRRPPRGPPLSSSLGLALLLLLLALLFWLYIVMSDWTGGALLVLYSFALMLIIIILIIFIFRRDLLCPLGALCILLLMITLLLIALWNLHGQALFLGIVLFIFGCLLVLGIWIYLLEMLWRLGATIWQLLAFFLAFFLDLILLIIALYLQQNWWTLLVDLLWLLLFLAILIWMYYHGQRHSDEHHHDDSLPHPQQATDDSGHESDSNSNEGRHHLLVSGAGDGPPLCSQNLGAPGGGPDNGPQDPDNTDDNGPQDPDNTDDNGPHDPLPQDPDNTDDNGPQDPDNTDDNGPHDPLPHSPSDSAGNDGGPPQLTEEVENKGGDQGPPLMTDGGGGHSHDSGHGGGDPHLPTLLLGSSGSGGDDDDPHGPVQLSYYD
Experiment [9] is described as follows: microbe, parasite or virus in culture. Conditions: Mycobacterium tuberculosis. The experiment is classed as functional.
The next experiment relates to INS1. The experiment in a line: INS-1E survival protection against cytokine death – cell-based, luminescence, retest, dose response (AID 449756).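 Note: cell death triggered by IL-1 beta plus TNF-alpha plus IFN-gamma mixture; protective hits raise ATP signal compared with cytokine alone wells.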 The class given is functional. Particulars: Rattus norvegicus.
In another experiment the test system is HEK293. The experiment in a line: EBV LMP1 TES2 canonical NF-kB signalling blockers – cell-based, HEK293, luciferase, cherry-pick, dose response (AID 588343). The experiment is classed as functional. Conditions: Homo sapiens.
The target of experiment [10] is T1, Sentrin-specific protease 6. The experiment in a line: inhibition of human SENP6 catalytic domain – biochemical, luminescence, set 2, SAR follow-up (AID 588598). The class given is functional.
The target in experiment [11] is T4, Sentrin-specific protease 8. The experiment in a line: inhibition of sentrin protease 8 – biochemical, luminescence, set 2, SAR follow-up (AID 588601). The class given is functional.
Experiment [12] deals with T3, Sentrin-specific protease 7. The experiment in a line: inhibition of human SENP7 cleavage activity – biochemical, luminescence, set 2, SAR follow-up (AID 588600). The experiment is classed as functional.
Experiment [13] addresses T2, Caspase-3. The experiment in a line: inhibition of recombinant caspase-3 activity – biochemical, luminescence, set 2, selectivity assay for SENP protease inhibitor project, SAR follow-up (AID 588599). The class given is functional.
The target in experiment [14] is Beta-2 adrenergic receptor (Homo sapiens, UniProt P07550). The experiment in a line: ADRB2 activation measured by internalization – cell-based, FAP fluorogen, flow cytometry, cherry pick 1, dose response (AID 588763). The class given is functional.
Beta-2 adrenergic receptor, sequence (P07550 whole entry): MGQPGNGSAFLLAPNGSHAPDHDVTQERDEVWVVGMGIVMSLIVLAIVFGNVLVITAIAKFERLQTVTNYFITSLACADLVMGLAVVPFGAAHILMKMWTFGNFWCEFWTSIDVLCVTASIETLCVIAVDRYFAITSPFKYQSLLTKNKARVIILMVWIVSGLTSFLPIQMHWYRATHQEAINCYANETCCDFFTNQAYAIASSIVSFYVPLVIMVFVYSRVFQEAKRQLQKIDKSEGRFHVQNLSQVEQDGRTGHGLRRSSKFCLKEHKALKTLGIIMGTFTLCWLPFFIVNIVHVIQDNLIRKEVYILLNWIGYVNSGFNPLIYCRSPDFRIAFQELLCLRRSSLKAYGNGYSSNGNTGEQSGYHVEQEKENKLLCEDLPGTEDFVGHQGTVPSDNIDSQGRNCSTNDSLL

The source made the active and inactive calls.

Paired box protein Pax-8, sequence (Q06710 whole entry, the tested form may be a part): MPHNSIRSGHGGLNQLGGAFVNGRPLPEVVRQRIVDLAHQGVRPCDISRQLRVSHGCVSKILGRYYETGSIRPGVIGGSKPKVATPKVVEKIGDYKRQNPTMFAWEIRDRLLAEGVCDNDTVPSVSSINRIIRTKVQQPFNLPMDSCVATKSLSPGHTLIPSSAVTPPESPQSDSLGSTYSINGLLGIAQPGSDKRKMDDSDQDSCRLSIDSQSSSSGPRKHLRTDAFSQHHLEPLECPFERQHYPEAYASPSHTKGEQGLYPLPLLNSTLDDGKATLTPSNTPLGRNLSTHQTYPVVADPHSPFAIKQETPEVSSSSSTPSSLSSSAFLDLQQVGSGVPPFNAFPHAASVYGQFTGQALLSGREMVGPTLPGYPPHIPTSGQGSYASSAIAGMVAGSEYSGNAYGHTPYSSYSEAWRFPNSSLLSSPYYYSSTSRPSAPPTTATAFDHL

Turning to `O=c1c(Cl)c(Cl)cnn1Cc1nnc(-c2ccccc2Br)o1`, at Paired box protein Pax-8, the AC50 is 7.63 µM (active). The IC50 in [1] was 7.65 µM (active); with CHO, 1.81 µM (active). The EC50 at Mucolipin-3 is 3.15 µM (active); in [2], 2.03 µM (active); on Ion channel NompC, 11.3 µM (not active); in experiment [3], 2.51 µM (active).

As for `COc1cc(Cc2nccc3cc(OC)c(OC)cc23)c(C(=O)c2ccccc2)cc1OC`, the IC50 is 50.9 µM (active) in experiment [4], 71.6 µM (active) at Caspase-3 [5], > 99 µM (inactive) in experiment [6] and > 99 µM (inactive) in [7].

Consider `Clc1ccc(SCc2cc(N3CCOCC3)nc(-c3ccccn3)n2)cc1`, for which the AC50 was 10.5 µM (active) in experiment [8], 2.57 µM (active) in the experiment with INS1 and 12.1 µM (active) with HEK293. For the same compound, in experiment [9], the CC50 was 19.5 µM (active). For the same compound, the results for the 50% effective concentration (EC50) in [2] and in experiment [3] were 1.51 µM (active) and > 60 µM (not active), respectively.

Consider `Cc1ccc(S(=O)(=O)NCCC(=O)N/N=C\c2c[nH]c3ccccc23)cc1`, for which the IC50 (in [10]; in [11]; in experiment [12]; on Caspase-3 [13]) was > 99 µM (inactive) throughout.

`CN(Cc1cccs1)c1nc(-c2cccnc2)nc2ccccc12`: the concentration giving a half-maximal response (EC50) in [14] was 1.26 µM (active).
